Measurements from ChEMBL document CHEMBL5241080, “Quinoline anticancer agents active on DNA and DNA-interacting proteins: From classical to emerging therapeutic targets” (Eur J Med Chem, 2021).

Key:
[1] = system: CFPAC-1; assay: Antiproliferative activity against human CFPAC-1 cells; type: functional, cell-based
[2] = system: HCT-116; assay: Antiproliferative activity against human HCT-116 cells; type: functional, cell-based
[3] = system: HPAC; assay: Antiproliferative activity against human HPAC cells; type: functional, cell-based
[4] = target: Histone-lysine N-methyltransferase SMYD3 (Homo sapiens, UniProt Q9H7B4); assay: Inhibition of SMYD3 (unknown origin)
[5] = system: HepG2; assay: Antiproliferative activity against human HepG2 cells; type: functional, cell-based
[6] = system: A549; assay: Antiproliferative activity against human A549 cells; type: functional, cell-based
[7] = system: KG-1; assay: Antiproliferative activity against human KG-1 cells; type: functional, cell-based
[8] = system: HL-60; assay: Antiproliferative activity against human HL-60 cells assessed as reduction cell viability incubated for 48 hrs by MTT assay; type: functional, cell-based; conditions: HL-60, 48 h
[9] = target: T1, DNA (cytosine-5)-methyltransferase 3A (Homo sapiens, UniProt Q9Y6K1); assay: Inhibition of DNMT3A (unknown origin)
[10] = system: HCT-116; assay: Antiproliferative activity against human HCT-116 cells assessed as reduction cell viability incubated for 48 hrs by MTT assay; type: functional, cell-based; conditions: HCT-116, 48 h
[11] = system: MCF7; assay: Antiproliferative activity against human MCF7 cells assessed as reduction cell viability incubated for 48 hrs by MTT assay; type: functional, cell-based; conditions: MCF7, 48 h
[12] = system: HT-1080; assay: Antiproliferative activity against human HT-1080 cells assessed as reduction cell viability incubated for 48 hrs by MTT assay; type: functional, cell-based; conditions: HT-1080, 48 h
[13] = system: NCI-H1299; assay: Antiproliferative activity against human NCI-H1299 cells assessed as reduction cell viability incubated for 48 hrs by MTT assay; type: functional, cell-based; conditions: NCI-H1299, 48 h
[14] = target: DNA (cytosine-5)-methyltransferase 1 (Homo sapiens, UniProt P26358); assay: Inhibition of his-tagged human DNMT1 by scintillation counter analysis
[15] = target: T1, DNA (cytosine-5)-methyltransferase 3A; assay: Inhibition of C-terminal biotin-labelled human DNMT3A by multilabel plate reader analysis
[16] = system: M14; assay: Antiproliferative activity against human M14 cells assessed as reduction cell viability incubated for 48 hrs by MTT assay; type: functional, cell-based; conditions: M14, 48 h
[17] = system: HeLa; assay: Antiproliferative activity against human HeLa cells assessed as reduction cell viability incubated for 48 hrs by MTT assay; type: functional, cell-based
[18] = system: MDA-MB-231; assay: Cytotoxicity against human MDA-MB-231 cells at 1 uM by MTT assay; type: functional
[19] = system: WI-38; assay: Antiproliferative activity against human WI-38 cells; type: functional, cell-based
[20] = system: HT-1080; assay: Antiproliferative activity against human HT-1080 cells; type: functional, cell-based
[21] = system: HeLa; assay: Antiproliferative activity against human HeLa cells; type: functional, cell-based
[22] = system: U2OS; assay: Antiproliferative activity against human U2OS cells; type: functional, cell-based
[23] = system: MIA PaCa-2; assay: Antiproliferative activity against human MIA PaCa-2 cells; type: functional, cell-based
[24] = target: Histone deacetylase; assay: Inhibition of HDAC (unknown origin); type: protein assay, Homo sapiens
[25] = system: U-251; assay: Antiproliferative activity against human U-251 cells; type: functional, cell-based
[26] = system: NCI-H460; assay: Antiproliferative activity against human NCI-H460 cells; type: functional, cell-based
[27] = system: T-24; assay: Cytotoxicity against human T24 cells; type: functional, cell-based
[28] = system: MGC-803; assay: Cytotoxicity against human MGC-803 cells; type: functional, cell-based
[29] = system: HepG2; assay: Cytotoxicity against human HepG2 cells; type: functional, cell-based
[30] = system: NCI-H460; assay: Cytotoxicity against human NCI-H460 cells; type: functional, cell-based
[31] = target: T2, DNA topoisomerase 1 (Homo sapiens, UniProt P11387); assay: Inhibition of human topoisomerase 1 incubated for 2 hrs by ELISA analysis
T2 sequence (P11387 whole entry): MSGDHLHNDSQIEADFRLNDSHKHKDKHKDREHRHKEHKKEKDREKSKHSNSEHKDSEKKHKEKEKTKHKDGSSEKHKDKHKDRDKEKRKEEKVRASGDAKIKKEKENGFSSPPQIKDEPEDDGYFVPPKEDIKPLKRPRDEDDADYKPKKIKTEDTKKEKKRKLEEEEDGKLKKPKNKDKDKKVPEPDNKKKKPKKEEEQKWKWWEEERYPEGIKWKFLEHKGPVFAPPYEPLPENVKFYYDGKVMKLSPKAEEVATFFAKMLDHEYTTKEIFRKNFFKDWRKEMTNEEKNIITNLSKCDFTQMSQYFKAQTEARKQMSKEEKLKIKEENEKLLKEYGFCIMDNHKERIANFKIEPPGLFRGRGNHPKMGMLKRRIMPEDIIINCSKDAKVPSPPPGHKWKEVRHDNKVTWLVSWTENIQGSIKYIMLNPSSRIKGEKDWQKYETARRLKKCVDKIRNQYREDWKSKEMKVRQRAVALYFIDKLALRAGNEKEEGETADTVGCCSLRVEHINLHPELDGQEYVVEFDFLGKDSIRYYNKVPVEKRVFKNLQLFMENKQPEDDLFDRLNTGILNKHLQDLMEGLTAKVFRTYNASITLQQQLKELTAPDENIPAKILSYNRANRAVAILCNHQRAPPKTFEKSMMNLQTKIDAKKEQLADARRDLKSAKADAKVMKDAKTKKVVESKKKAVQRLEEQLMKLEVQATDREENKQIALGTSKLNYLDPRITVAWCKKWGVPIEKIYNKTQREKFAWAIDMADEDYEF

[32] = system: SR; assay: Cytotoxicity against human SR cells incubated for 24 hrs by MTT assay; type: functional
[33] = system: HL-60; assay: Cytotoxicity against human HL-60 cells incubated for 24 hrs by MTT assay; type: functional
[34] = system: MDA-MB-435; assay: Cytotoxicity against human MDA-MB-435 cells incubated for 24 hrs by MTT assay; type: functional
[35] = system: MCF7; assay: Antiproliferative activity against human MCF7 cells assessed as inhibition of cell growth incubated for 72 hrs by MTT assay; type: functional, cell-based; conditions: MCF7, 72 h
[36] = system: CAKI-1; assay: Antiproliferative activity against human CAKI-1 cells assessed as inhibition of cell growth incubated for 72 hrs by MTT assay; type: functional, cell-based; conditions: CAKI-1, 72 h
[37] = system: SK-MEL-5; assay: Antiproliferative activity against human SK-MEL-5 cells; type: functional, cell-based
[38] = system: SK-MEL-28; assay: Antiproliferative activity against human SK-MEL-28 cells; type: functional, cell-based
[39] = Antiproliferative activity against human A375P cells; type: functional, cell-based
[40] = system: U-937; assay: Antiproliferative activity against human U-937 cells assessed as reduction cell viability incubated for 48 hrs by MTT assay; type: functional, cell-based; conditions: U-937, 48 h

T1 sequence (Q9Y6K1 whole entry, looked up): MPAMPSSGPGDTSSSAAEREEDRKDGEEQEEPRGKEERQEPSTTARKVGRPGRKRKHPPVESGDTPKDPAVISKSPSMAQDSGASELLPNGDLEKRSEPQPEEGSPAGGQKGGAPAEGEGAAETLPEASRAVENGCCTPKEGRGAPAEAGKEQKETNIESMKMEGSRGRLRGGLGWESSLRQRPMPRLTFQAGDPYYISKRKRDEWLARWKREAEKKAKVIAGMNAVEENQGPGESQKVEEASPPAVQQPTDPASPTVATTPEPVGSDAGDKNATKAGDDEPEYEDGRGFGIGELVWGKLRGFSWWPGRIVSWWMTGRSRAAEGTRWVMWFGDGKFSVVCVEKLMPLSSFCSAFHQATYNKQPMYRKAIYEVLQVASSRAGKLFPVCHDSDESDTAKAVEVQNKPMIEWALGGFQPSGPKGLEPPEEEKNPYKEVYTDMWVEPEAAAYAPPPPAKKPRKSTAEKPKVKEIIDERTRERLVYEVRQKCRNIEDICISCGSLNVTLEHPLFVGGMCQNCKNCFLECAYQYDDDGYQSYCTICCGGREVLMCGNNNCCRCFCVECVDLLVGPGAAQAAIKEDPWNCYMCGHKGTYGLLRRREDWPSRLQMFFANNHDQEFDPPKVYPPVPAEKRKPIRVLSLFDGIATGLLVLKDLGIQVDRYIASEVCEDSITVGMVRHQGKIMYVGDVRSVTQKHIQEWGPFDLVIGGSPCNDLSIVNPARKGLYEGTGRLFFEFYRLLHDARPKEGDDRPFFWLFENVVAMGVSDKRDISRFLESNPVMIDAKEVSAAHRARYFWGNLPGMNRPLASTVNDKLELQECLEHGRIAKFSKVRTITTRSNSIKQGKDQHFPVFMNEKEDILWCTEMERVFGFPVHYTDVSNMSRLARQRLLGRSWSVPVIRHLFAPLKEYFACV
DNA (cytosine-5)-methyltransferase 1, sequence (P26358 whole entry): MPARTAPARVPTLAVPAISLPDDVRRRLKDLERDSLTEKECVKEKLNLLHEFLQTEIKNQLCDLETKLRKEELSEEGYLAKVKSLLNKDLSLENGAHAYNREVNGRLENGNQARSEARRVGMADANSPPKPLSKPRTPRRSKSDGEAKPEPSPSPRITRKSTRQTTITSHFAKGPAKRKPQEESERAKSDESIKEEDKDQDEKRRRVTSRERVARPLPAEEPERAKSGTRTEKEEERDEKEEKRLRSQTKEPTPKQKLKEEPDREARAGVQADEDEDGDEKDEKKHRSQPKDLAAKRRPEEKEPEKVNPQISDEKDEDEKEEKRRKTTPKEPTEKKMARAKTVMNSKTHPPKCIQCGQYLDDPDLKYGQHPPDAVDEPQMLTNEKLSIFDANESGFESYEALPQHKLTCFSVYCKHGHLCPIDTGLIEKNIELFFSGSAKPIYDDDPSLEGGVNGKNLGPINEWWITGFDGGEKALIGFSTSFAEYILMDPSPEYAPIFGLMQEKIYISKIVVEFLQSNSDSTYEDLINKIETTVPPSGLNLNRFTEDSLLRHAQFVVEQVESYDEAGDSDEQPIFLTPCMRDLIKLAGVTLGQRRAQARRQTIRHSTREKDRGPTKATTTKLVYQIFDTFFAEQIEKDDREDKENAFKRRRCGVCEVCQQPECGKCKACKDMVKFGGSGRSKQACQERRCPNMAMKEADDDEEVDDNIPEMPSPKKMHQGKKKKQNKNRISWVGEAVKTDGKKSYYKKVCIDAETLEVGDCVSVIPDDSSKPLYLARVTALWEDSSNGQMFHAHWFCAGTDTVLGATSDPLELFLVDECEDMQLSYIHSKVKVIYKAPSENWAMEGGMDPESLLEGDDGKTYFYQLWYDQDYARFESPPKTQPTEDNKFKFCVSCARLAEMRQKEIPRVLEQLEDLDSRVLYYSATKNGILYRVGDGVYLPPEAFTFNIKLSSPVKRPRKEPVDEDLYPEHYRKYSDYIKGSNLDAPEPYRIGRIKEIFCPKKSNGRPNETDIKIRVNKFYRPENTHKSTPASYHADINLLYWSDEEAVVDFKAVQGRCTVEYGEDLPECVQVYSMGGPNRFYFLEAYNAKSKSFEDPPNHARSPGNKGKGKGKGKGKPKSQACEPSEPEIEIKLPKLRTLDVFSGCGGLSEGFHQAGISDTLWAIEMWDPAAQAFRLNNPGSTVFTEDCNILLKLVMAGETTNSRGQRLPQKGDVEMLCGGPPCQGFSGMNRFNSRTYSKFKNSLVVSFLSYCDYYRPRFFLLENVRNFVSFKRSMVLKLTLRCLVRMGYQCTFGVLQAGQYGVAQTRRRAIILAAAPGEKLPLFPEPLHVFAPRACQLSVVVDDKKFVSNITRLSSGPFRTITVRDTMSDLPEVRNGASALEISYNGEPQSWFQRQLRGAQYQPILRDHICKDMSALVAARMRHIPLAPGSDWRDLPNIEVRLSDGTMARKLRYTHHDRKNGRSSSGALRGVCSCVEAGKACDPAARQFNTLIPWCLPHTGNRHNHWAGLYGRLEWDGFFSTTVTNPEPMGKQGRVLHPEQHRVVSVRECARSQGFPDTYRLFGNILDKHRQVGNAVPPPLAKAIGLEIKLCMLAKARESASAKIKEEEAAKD
Histone-lysine N-methyltransferase SMYD3, sequence (Q9H7B4 whole entry): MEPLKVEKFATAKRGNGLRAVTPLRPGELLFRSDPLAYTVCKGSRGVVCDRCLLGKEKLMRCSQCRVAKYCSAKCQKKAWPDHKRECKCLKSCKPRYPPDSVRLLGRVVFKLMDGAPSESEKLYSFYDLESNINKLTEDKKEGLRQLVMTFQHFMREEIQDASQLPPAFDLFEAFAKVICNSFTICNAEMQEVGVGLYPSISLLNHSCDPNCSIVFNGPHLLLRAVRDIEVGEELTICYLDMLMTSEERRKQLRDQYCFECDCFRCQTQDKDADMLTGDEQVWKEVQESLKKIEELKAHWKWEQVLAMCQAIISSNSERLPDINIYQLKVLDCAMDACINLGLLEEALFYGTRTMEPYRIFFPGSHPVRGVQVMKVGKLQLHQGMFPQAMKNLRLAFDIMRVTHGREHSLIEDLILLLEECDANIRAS

Compound: CCCOC(=O)N1CCN(C(=O)c2ccc3c(Cl)c4c(nc3c2)CCC(CCN)C4)CC1 (configuration not stated)
- IC50 [1]: 11000 nM
- IC50 [2]: 11000 nM
- IC50 [3]: 11000 nM
- IC50 [4]: 40 nM
- IC50 [5]: 11000 nM
- IC50 [6]: 11000 nM

Compound: O=C(Nc1ccc(Nc2ccnc3ccccc23)cc1)c1ccc(Nc2ccncc2)cc1
- IC50 [7]: 960 nM
- IC50 [8]: 200 nM
- IC50 [9]: 900 nM
- IC50 [10]: 1000 nM
- IC50 [11]: 4100 nM
- IC50 [12]: 500 nM
- IC50 [13]: 14700 nM
- IC50 [14]: 23000 nM
- IC50 [15]: 6000 nM
- IC50 [16]: 500 nM
- IC50 [17]: 140 nM

Compound: O[C@@H]1[C@@H](O)[C@H](Oc2ccc(O[C@@H]3O[C@H](COc4cccc5cccnc45)[C@@H](O)[C@H](O)[C@H]3O)cc2)O[C@H](COc2cccc3cccnc23)[C@H]1O
- Activity [18]: 34.9%

Compound: NCCCOc1cc(NC(=O)c2cc(Cl)cc(C(=O)Nc3cc(OCCCN)c4ccccc4n3)n2)nc2ccccc12
- IC50 [19]: 300 nM
- IC50 [20]: 300 nM
- IC50 [21]: 300 nM
- IC50 [22]: 300 nM

Compound: CCN(CC)CCCNc1ccc2c(c1)[nH]c1c2c[n+](C)c2ccc(NCCCN(CC)CC)cc12
- IC50 [23]: 220 nM

Compound: CC1(C)CC(=O)Nc2ccc(C(=O)NCC3CCC(/C=C/C(=O)NO)CC3)cc21 (configuration not stated)
- IC50 [24]: 1.5 nM
- IC50 [2]: 600 nM
- IC50 [25]: 0.6 nM
- IC50 [26]: 1 nM

Compound: CCCCCCOc1ccc(/C=N/Nc2cc(C)nc3ccc(Cl)cc23)cc1
- IC50 [27]: 3170 nM
- IC50 [28]: 2200 nM
- IC50 [29]: 4880 nM
- IC50 [30]: 3220 nM

Compound: N#CC1=C(N)Oc2c(ccc3ccccc23)C1c1cc2ccccc2n2nnnc12 (configuration not stated)
- IC50 [31]: 278 nM
- GI50 [32]: 232 nM
- GI50 [33]: 260 nM
- GI50 [34]: 300 nM

Compound: CC1CN(c2nc3ccccc3c3c2-c2ccc(Cl)cc2C3=O)CCN1 (configuration not stated)
- IC50 [35]: 2400 nM
- IC50 [36]: 1660 nM

Compound: CCN(CC)CCOC(=O)c1ccc2c(c1)C1C(C(=O)c3ccccc3N1CCN(CC)CC)N2CCN(CC)CC (configuration not stated)
- IC50 [2]: < 10000 nM

Compound: CC[C@@]1(O)C(=O)OCc2c1cc1n(c2=O)Cc2c-1nc1cc(F)c(OC)cc1c2C
- IC50 [37]: 2.6 nM
- IC50 [38]: 1.4 nM
- IC50 [39]: 1.9 nM

Compound: O=C(Nc1ccc(Nc2ccnc3ccccc23)cc1)c1cccc(Nc2ccnc3ccccc23)c1
- IC50 [8]: 1600 nM
- IC50 [40]: 700 nM
- IC50 [10]: 1500 nM
- IC50 [11]: 300 nM
- IC50 [12]: 2700 nM
- IC50 [13]: 5300 nM
- IC50 [14]: 27000 nM
- IC50 [15]: 800 nM
- IC50 [16]: 4700 nM
- IC50 [17]: 2000 nM

Compound: O=C(Nc1cccc(Nc2ccnc3ccccc23)c1)c1cccc(Nc2ccnc3ccccc23)c1
- IC50 [40]: 1500 nM
